According to patent publication US6579890B1, “Matrix metalloprotease inhibitors” (Syntex (U.S.A.) Inc., priority 1993, dated 2003):

CC(C)(C)[C@H](NC(=O)[C@H](CCCc1ccc(-c2ccccc2)cc1)CC(=O)O)C(=O)Nc1ccncc1 [Example 32A, N-(2R-carboxymethyl-5-(biphen-4-yl)pentanoyl)-L-t-leucine-N′-(pyridin-4-yl)carboxamide]
melting point: 198 to 201 °C
